Laboratory results reported in patent US20250059171A1 (Hoffmann-La Roche Inc., priority 2021, published 2025).

Legend:
SARS-CoV 3CLpro = SARS-CoV 3CLpro (Severe acute respiratory syndrome coronavirus, UniProt P0C6X7); assay: biochemical
MERS-CoV 3CLpro = MERS-CoV 3CLpro (Middle East respiratory syndrome-related coronavirus, UniProt K9N7C7); assay: biochemical
HCoV-229E 3CLpro = HCoV-229E 3CLpro (Human coronavirus 229E, UniProt P0C6X1); assay: HCoV-229E 3CLpro inhibition assay (FRET); type: biochemical
SARS-CoV-2 3CLpro = SARS-CoV-2 3CLpro (Severe acute respiratory syndrome coronavirus 2, UniProt P0DTD1); assay: biochemical

Sequence of MERS-CoV 3CLpro (K9N7C7 3248-3553): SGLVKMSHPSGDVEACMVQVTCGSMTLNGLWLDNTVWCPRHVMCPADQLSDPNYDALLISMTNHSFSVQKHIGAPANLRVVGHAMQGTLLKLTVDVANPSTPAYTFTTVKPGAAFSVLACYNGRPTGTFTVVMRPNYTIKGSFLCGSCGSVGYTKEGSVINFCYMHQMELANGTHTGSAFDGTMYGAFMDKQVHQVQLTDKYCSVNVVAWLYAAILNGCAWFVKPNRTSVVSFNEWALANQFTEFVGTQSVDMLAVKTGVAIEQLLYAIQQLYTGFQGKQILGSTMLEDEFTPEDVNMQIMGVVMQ
Sequence of HCoV-229E 3CLpro (P0C6X1 2966-3267): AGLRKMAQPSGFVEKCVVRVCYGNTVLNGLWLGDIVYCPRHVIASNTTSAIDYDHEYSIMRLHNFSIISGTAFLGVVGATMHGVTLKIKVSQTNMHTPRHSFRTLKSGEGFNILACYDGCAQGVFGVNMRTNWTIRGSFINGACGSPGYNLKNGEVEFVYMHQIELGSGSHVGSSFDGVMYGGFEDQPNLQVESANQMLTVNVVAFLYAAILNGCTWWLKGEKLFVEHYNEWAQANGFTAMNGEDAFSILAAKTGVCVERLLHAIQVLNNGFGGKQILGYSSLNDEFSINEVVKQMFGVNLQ

| Structure (SMILES) | IC50 (SARS-CoV 3CLpro) | IC50 (MERS-CoV 3CLpro) | IC50 (HCoV-229E 3CLpro) | IC50 (SARS-CoV-2 3CLpro) |
| --- | --- | --- | --- | --- |
| CC(F)(F)C(=O)N[C@H](C(=O)N1C[C@@H]2CCC[C@@H]2[C@H]1C(=O)NN(C[C@@H]1CCNC1=O)C(=O)[C@H](F)Cl)C(C)(C)C [Example 30, N-[(1S)-1-[(3S,3aS,6aR)-3-[[[(2R)-2-chloro-2-fluoro-acetyl]-[[(3S)-2-oxopyrrolidin-3-yl]methyl]amino]carbamoyl]-3,3a,4,5,6,6a-hexahydro-1H-cyclopenta[c]pyrrole-2-carbonyl]-2,2-dimethyl-propyl]-2,2-difluoro-propanamide] | 15 nM | 143 nM | 49 nM | 8 nM |
| CC(C)(C)[C@H](NC(=O)C1CC1)C(=O)N1C[C@@H]2CCC[C@@H]2[C@H]1C(=O)NN(C[C@@H]1CCNC1=O)C(=O)[C@H](F)Cl [Example 31, N-[(1S)-1-[(3S,3aS,6aR)-3-[[[(2R)-2-chloro-2-fluoro-acetyl]-[[(3S)-2-oxopyrrolidin-3-yl]methyl]amino]carbamoyl]-3,3a,4,5,6,6a-hexahydro-1H-cyclopenta[c]pyrrole-2-carbonyl]-2,2-dimethyl-propyl]cyclopropanecarboxamide] | 12 nM | 76 nM | 28 nM | 8 nM |
| CCC(=O)N[C@H](C(=O)N1C[C@@H]2CCC[C@@H]2[C@H]1C(=O)NN(C[C@@H]1CCNC1=O)C(=O)[C@H](F)Cl)C(C)(C)C [Example 32, N-[(1S)-1-[(3S,3aS,6aR)-3-[[[(2R)-2-chloro-2-fluoro-acetyl]-[[(3S)-2-oxopyrrolidin-3-yl]methyl]amino]carbamoyl]-3,3a,4,5,6,6a-hexahydro-1H-cyclopenta[c]pyrrole-2-carbonyl]-2,2-dimethyl-propyl]propanamide] | 10 nM | 80 nM | 23 nM | 7 nM |
| CC(C)C(=O)N[C@H](C(=O)N1C[C@@H]2CCC[C@@H]2[C@H]1C(=O)NN(C[C@@H]1CCNC1=O)C(=O)[C@H](F)Cl)C(C)(C)C [Example 33, N-[(1S)-1-[(3S,3aS,6aR)-3-[[[(2R)-2-chloro-2-fluoro-acetyl]-[[(3S)-2-oxopyrrolidin-3-yl]methyl]amino]carbamoyl]-3,3a,4,5,6,6a-hexahydro-1H-cyclopenta[c]pyrrole-2-carbonyl]-2,2-dimethyl-propyl]-2-methyl-propanamide] | 8 nM | 79 nM | 27 nM | 7 nM |
| CC(C)(F)C(=O)N[C@H](C(=O)N1C[C@@H]2CCC[C@@H]2[C@H]1C(=O)NN(C[C@@H]1CCNC1=O)C(=O)[C@H](F)Cl)C(C)(C)C [Example 35, N-[(1S)-1-[(3S,3aS,6aR)-3-[[[(2R)-2-chloro-2-fluoro-acetyl]-[[(3S)-2-oxopyrrolidin-3-yl]methyl]amino]carbamoyl]-3,3a,4,5,6,6a-hexahydro-1H-cyclopenta[c]pyrrole-2-carbonyl]-2,2-dimethyl-propyl]-2-fluoro-2-methyl-propanamide] | 8 nM | 60 nM | 23 nM | 8 nM |
| CC[C@H](C)[C@H](NC(=O)C1CC1)C(=O)N1C[C@@H]2CCC[C@@H]2[C@H]1C(=O)NN(C[C@@H]1CCNC1=O)C(=O)[C@H](F)Cl [Example 37, N-[(1S,2S)-1-[(3S,3aS,6aR)-3-[[[(2R)-2-chloro-2-fluoro-acetyl]-[[(3S)-2-oxopyrrolidin-3-yl]methyl]amino]carbamoyl]-3,3a,4,5,6,6a-hexahydro-1H-cyclopenta[c]pyrrole-2-carbonyl]-2-methyl-butyl]cyclopropanecarboxamide] | 11 nM | 76 nM | 29 nM | 9 nM |
| CCC(=O)N[C@H](C(=O)N1C[C@@H]2CCC[C@@H]2[C@H]1C(=O)NN(C[C@@H]1CCNC1=O)C(=O)[C@H](F)Cl)[C@@H](C)CC [Example 38, N-[(1S,2S)-1-[(3S,3aS,6aR)-3-[[[(2R)-2-chloro-2-fluoro-acetyl]-[[(3S)-2-oxopyrrolidin-3-yl]methyl]amino]carbamoyl]-3,3a,4,5,6,6a-hexahydro-1H-cyclopenta[c]pyrrole-2-carbonyl]-2-methyl-butyl]propanamide] | 10 nM | 72 nM | 29 nM | 8 nM |
| CC[C@H](C)[C@H](NC(=O)C(F)F)C(=O)N1C[C@@H]2CCC[C@@H]2[C@H]1C(=O)NN(C[C@@H]1CCNC1=O)C(=O)[C@H](F)Cl [Example 39, N-[(1S,2S)-1-[(3S,3aS,6aR)-3-[[[(2R)-2-chloro-2-fluoro-acetyl]-[[(3S)-2-oxopyrrolidin-3-yl]methyl]amino]carbamoyl]-3,3a,4,5,6,6a-hexahydro-1H-cyclopenta[c]pyrrole-2-carbonyl]-2-methyl-butyl]-2,2-difluoro-acetamide] | 11 nM | 71 nM | 29 nM | 9 nM |
| CC[C@H](C)[C@H](NC(=O)C(C)(F)F)C(=O)N1C[C@@H]2CCC[C@@H]2[C@H]1C(=O)NN(C[C@@H]1CCNC1=O)C(=O)[C@H](F)Cl [Example 40, N-[(1S,2S)-1-[(3S,3aS,6aR)-3-[[[(2R)-2-chloro-2-fluoro-acetyl]-[[(3S)-2-oxopyrrolidin-3-yl]methyl]amino]carbamoyl]-3,3a,4,5,6,6a-hexahydro-1H-cyclopenta[c]pyrrole-2-carbonyl]-2-methyl-butyl]-2,2-difluoro-propanamide] | 13 nM | 50 nM | 27 nM | 21 nM |
| CC[C@H](C)[C@H](NC(=O)C(C)(C)F)C(=O)N1C[C@@H]2CCC[C@@H]2[C@H]1C(=O)NN(C[C@@H]1CCNC1=O)C(=O)[C@H](F)Cl [Example 42, N-[(1S,2S)-1-[(3S,3aS,6aR)-3-[[[(2R)-2-chloro-2-fluoro-acetyl]-[[(3S)-2-oxopyrrolidin-3-yl]methyl]amino]carbamoyl]-3,3a,4,5,6,6a-hexahydro-1H-cyclopenta[c]pyrrole-2-carbonyl]-2-methyl-butyl]-2-fluoro-2-methyl-propanamide] | 9 nM | 82 nM | 24 nM | 7 nM |
| CC[C@H](C)[C@H](NC(=O)C(C)(C)C)C(=O)N1C[C@@H]2CCC[C@@H]2[C@H]1C(=O)NN(C[C@@H]1CCNC1=O)C(=O)[C@H](F)Cl [Example 44, N-[(1S,2S)-1-[(3S,3aS,6aR)-3-[[[(2R)-2-chloro-2-fluoro-acetyl]-[[(3S)-2-oxopyrrolidin-3-yl]methyl]amino]carbamoyl]-3,3a,4,5,6,6a-hexahydro-1H-cyclopenta[c]pyrrole-2-carbonyl]-2-methyl-butyl]-2,2-dimethyl-propanamide] | 11 nM | 55 nM | 23 nM | 8 nM |
| CC[C@H](C)[C@H](NC(=O)CC(F)(F)F)C(=O)N1C[C@@H]2CCC[C@@H]2[C@H]1C(=O)NN(C[C@@H]1CCNC1=O)C(=O)[C@H](F)Cl [Example 45, N-[(1S,2S)-1-[(3S,3aS,6aR)-3-[[[(2R)-2-chloro-2-fluoro-acetyl]-[[(3S)-2-oxopyrrolidin-3-yl]methyl]amino]carbamoyl]-3,3a,4,5,6,6a-hexahydro-1H-cyclopenta[c]pyrrole-2-carbonyl]-2-methyl-butyl]-3,3,3-trifluoro-propanamide] | 10 nM | 104 nM | 35 nM | 19 nM |
| CCCC(=O)N[C@H](C(=O)N1C[C@@H]2CCC[C@@H]2[C@H]1C(=O)NN(C[C@@H]1CCNC1=O)C(=O)[C@H](F)Cl)[C@@H](C)CC [Example 46, N-[(1S,2S)-1-[(3S,3aS,6aR)-3-[[[(2R)-2-chloro-2-fluoro-acetyl]-[[(3S)-2-oxopyrrolidin-3-yl]methyl]amino]carbamoyl]-3,3a,4,5,6,6a-hexahydro-1H-cyclopenta[c]pyrrole-2-carbonyl]-2-methyl-butyl]butanamide] | 29 nM | 152 nM | 49 nM | 8 nM |
| CC[C@H](C)[C@H](NC(=O)C(C)C)C(=O)N1C[C@@H]2CCC[C@@H]2[C@H]1C(=O)NN(C[C@@H]1CCNC1=O)C(=O)[C@H](F)Cl [Example 47, N-[(1S,2S)-1-[(3S,3aS,6aR)-3-[[[(2R)-2-chloro-2-fluoro-acetyl]-[[(3S)-2-oxopyrrolidin-3-yl]methyl]amino]carbamoyl]-3,3a,4,5,6,6a-hexahydro-1H-cyclopenta[c]pyrrole-2-carbonyl]-2-methyl-butyl]-2-methyl-propanamide] | 12 nM | 76 nM | 26 nM | 7 nM |
| CC[C@H](C)[C@H](NC(=O)C(F)(F)F)C(=O)N1C[C@@H]2CCC[C@@H]2[C@H]1C(=O)NN(C[C@@H]1CCNC1=O)C(=O)[C@H](F)Cl [Example 48, N-[(1S,2S)-1-[(3S,3aS,6aR)-3-[[[(2R)-2-chloro-2-fluoro-acetyl]-[[(3S)-2-oxopyrrolidin-3-yl]methyl]amino]carbamoyl]-3,3a,4,5,6,6a-hexahydro-1H-cyclopenta[c]pyrrole-2-carbonyl]-2-methyl-butyl]-2,2,2-trifluoro-acetamide] | 12 nM | 56 nM | 22 nM | 12 nM |
| CC[C@H](C)[C@H](NC(=O)C(Cl)Cl)C(=O)N1C[C@@H]2CCC[C@@H]2[C@H]1C(=O)NN(C[C@@H]1CCNC1=O)C(=O)[C@H](F)Cl [Example 49, N-[(1S,2S)-1-[(3S,3aS,6aR)-3-[[[(2R)-2-chloro-2-fluoro-acetyl]-[[(3S)-2-oxopyrrolidin-3-yl]methyl]amino]carbamoyl]-3,3a,4,5,6,6a-hexahydro-1H-cyclopenta[c]pyrrole-2-carbonyl]-2-methyl-butyl]-2,2-dichloro-acetamide] | 13 nM | 96 nM | 33 nM | 7 nM |
